Experiment [1] relates to HCT116 FOP control reporter cell line. Nature of the experiment: HCT116 FOP control vector reporter assay (non-functional TCF elements). The settings on record: Homo sapiens, HCT-116, 36 h, HCT116 FOP control reporter cells, luciferase expression, 36 hours incubation, 50 μM to 15 nM; read-out: HCT116 FOPFlash IC50. It is filed as cell-based. On the procedure:
(§1) In a parallel approach, HCT116 cells were cotransfected with the FOP control vector and pcDNA3. The FOP vector is identical to the TOP construct, but it contains instead of functional TCF elements a randomized, non-functional sequence. For this transfection a stable transfected cell line was generated as well.
(§2) In preparation of the assay, the two cell lines were plated 24 hrs before at 10000 cells per well of a 384 micro titre plate (MTP) in 30 μL growth medium. Selective inhibitory activity for small molecules on the mutated Wnt pathway was determined after parallel incubation of both (TOP and FOP) HCT116 reporter cell lines with a compound dilution series from 50 μM to 15 nM in steps of 3.16-fold dilutions in CAFTY buffer (130 mM NaCl, 5 mM KCl, 20 mM HEPES, 1 mM MgCl2, 5 mM NaHCO3, pH 7.4) containing 2 mM Ca^2+ and 0.01% BSA. The compounds were thereby serially prediluted in 100% DMSO and thereafter in addition 50 fold into the CAFTY compound dilution buffer (described above). From this dilution 10 μL were added to the cells in 30 μL growth medium and incubated for 36 hours at 37° C. and 5% CO2. Thereafter luciferase assay buffer (1:1 mixture of luciferase substrate buffer (20 mM Tricine, 2.67 mM MgSO4, 0.1 mM EDTA, 4 mM DTT, 270 μM Coenzyme A, 470 μM Luciferin, 530 μM ATP, ph adjusted to pH 7.8 with a sufficient volume of 5M NaOH) and Triton buffer (30 mL Triton X-100, 115 mL glycerol, 308 mg Dithiothreitol, 4.45 g Na2HPO4.2 H2O, 3.03 g Tris.HCL, ad 1 l H20, pH 7.8) was added as equal volume to the compound solution on the cells to determine luciferase expression as a measure of Wnt signaling activity in a luminometer.
On the technique in general: In a reporter assay the amount or activity of a reporter protein is the signal.

For experiment [2], the system named is constitutive active colorectal cancer cell (CRC) Wnt pathway. Nature of the experiment: HCT116 Super TopFlash cellular reporter assay (constitutive active Wnt pathway). To be noted: Homo sapiens, HCT-116, 36 h, HCT116 TOP reporter cells, luciferase expression, 36 hours incubation, 50 μM to 15 nM. Format: cell-based. The procedure: In order to discover and characterize small molecules which inhibit the constitutive active colorectal cancer cell (CRC) Wnt pathway, a cellular reporter assay was employed. The corresponding assay cell was generated by transfection of the colorectal cancer cell line HCT116 (ATCC, #CCL-247) with the Super TopFlash vector (Morin, Science 275, 1997, 1787-1790; Molenaar et al., Cell 86 (3), 1996, 391-399). The HCT116 cell line is cultivated at 37° C. and 5% CO2 in DMEM/F-12 (Life Technologies, #11320-074), supplemented with 2 mM glutamine, 20 mM HEPES, 1.4 mM pyruvate, 0.15% Na-bicarbonate and 10% foetal bovine serum (GIBCO, #10270), this cancer cell line is pathophysiological relevant since it carries a deletion of position S45 in the β-catenin gene, leading to constitutive active Wnt signaling. Stable transfectants were generated by cotransfection with pcDNA3 and selection of stable transfected cells with 1 mg/ml G418.
as §1, §2

As a reminder, the IC50 is the midpoint of a concentration-inhibition curve.

Where a name gives a salt, the structure may show the parent alone. Where only a bound is given, the exact number is not on record here.

Turning to `O=C(CN1CCOCC1)Nc1cc(NC(=O)c2ccc(-c3ccccc3)cc2)ccc1O` [Example 84, N-{4-hydroxy-3-[(morpholin-4-ylacetyl)amino]phenyl}biphenyl-4-carboxamide], the IC50 in experiment [1] is at least 50000 nM; in experiment [2] it was 2030 nM.

On to `COCCCOCc1ccc(C(=O)Nc2ccc(-c3ccccc3)cc2)cc1NC(=O)CN1CCOCC1` [Example 87, N-(biphenyl-4-yl)-4-[(3-methoxypropoxy)methyl]-3-[(morpholin-4-ylacetyl)amino]benzamide], for which the figures for the IC50 in experiment [1] and in experiment [2] were 34000 nM and 196 nM, respectively.

For `NCCCOc1ccc(C(=O)Nc2ccc(-c3ccccc3)cc2)cc1NC(=O)C1(N2CCOCC2)CC1` [Example 89, 4-(3-aminopropoxy)-N-(biphenyl-4-yl)-3-({[1-(morpholin-4-yl)cyclopropyl]carbonyl}amino)benzamide hydrochloride (1:1)], the values for the IC50 in experiment [1] and in experiment [2] were 20200 nM and 676 nM, respectively.

On to `COCCCOc1ccc(C(=O)Nc2ccc(-c3ccccc3)cc2)cc1NC(=O)CN1CCOCC1` [Example 91, N-(biphenyl-4-yl)-4-(3-methoxypropoxy)-3-[(morpholin-4-ylacetyl)amino]benzamide], for which the IC50 in experiment [1] is at least 50000 nM; in experiment [2] it was 262 nM.

Turning to `COCCOc1ccc(C(=O)Nc2ccc(-c3ccccc3)cc2)cc1NC(=O)CN1CCOCC1` [Example 92, N-(biphenyl-4-yl)-4-(2-methoxyethoxy)-3-[(morpholin-4-ylacetyl)amino]benzamide], the IC50 in experiment [1] is at least 50000 nM; in experiment [2] it was 448 nM.

Take `O=C(CN1CCOCC1)Nc1cc(C(=O)Nc2ccc(-c3ccccc3)cc2)ccc1OCCO` [Example 93, N-(biphenyl-4-yl)-4-(2-hydroxyethoxy)-3-[(morpholin-4-ylacetyl)amino]benzamide]: the figures for the IC50 in experiment [1] and in experiment [2] were at least 50000 nM and 194 nM, respectively.

Take `CCC(C(=O)Nc1cc(C(=O)Nc2ccc(-c3ccccc3)cc2)ccc1OC)N1CCOCC1` (centres unmarked) [Example 99, N-(biphenyl-4-yl)-4-methoxy-3-{[2-(morpholin-4-yl)butanoyl]amino}benzamide]: the IC50 in experiment [1] was at least 50000 nM; in experiment [2] it was 380 nM.

For the molecule `O=C(CN1CCOCC1)Nc1cc(C(=O)Nc2ccc(-c3ccccc3)cc2)ccc1C(=O)NCCCN1CCCC1` [Example 103, N^4-(biphenyl-4-yl)-2-[(morpholin-4-ylacetyl)amino]-N-[3-(pyrrolidin-1-yl)propyl]terephthalamide], the IC50 in experiment [1] amounted to 7400 nM; in experiment [2], 302 nM.

`CN(C)CCCNC(=O)c1ccc(C(=O)Nc2ccc(-c3ccccc3)cc2)cc1NC(=O)CN1CCOCC1` [Example 104, N^4-(biphenyl-4-yl)-N^1-[3-(dimethylamino)propyl]-2-[(morpholin-4-ylacetyl)amino]terephthalamide]: the IC50 in experiment [1] was 7400 nM; in experiment [2], 534 nM.

As to `CN(C)CCNC(=O)c1ccc(C(=O)Nc2ccc(-c3ccccc3)cc2)cc1NC(=O)CN1CCOCC1` [Example 105, formic acid —N^4-(biphenyl-4-yl)-N^1-[2-(dimethylamino)ethyl]-2-[(morpholin-4-ylacetyl)amino]terephthalamide (1:1)], the results for the IC50 in experiment [1] and in experiment [2] were 7800 nM and 552 nM, respectively.

With `C[S+]([O-])c1ccc(C(=O)Nc2ccc(-c3ccccc3)cc2)cc1NC(=O)CN1CCOCC1` (centres unmarked) [Example 110, N-(biphenyl-4-yl)-4-(methylsulfinyl)-3-[(morpholin-4-ylacetyl)amino]benzamide], the figures for the IC50 in experiment [1] and in experiment [2] were 6500 nM and 366 nM, respectively.

Consider `CS(=O)(=O)c1ccc(C(=O)Nc2ccc(-c3ccccc3)cc2)cc1NC(=O)CN1CCOCC1` [Example 111, N-(biphenyl-4-yl)-4-(methylsulfonyl)-3-[(morpholin-4-ylacetyl)amino]benzamide], for which the results for the IC50 in experiment [1] and in experiment [2] were at least 50000 nM and 162 nM, respectively.

On to `O=C(Nc1ccc(-c2ccccc2)cc1)c1ccc(OC2CC2)c(NC(=O)C2(N3CCOCC3)CC2)c1` [Example 113, N-(biphenyl-4-yl)-4-(cyclopropyloxy)-3-({[1-(morpholin-4-yl)cyclopropyl]carbonyl}amino)benzamide], for which the concentration for half-maximal inhibition (IC50) in experiment [1] was at least 50000 nM; in experiment [2] it was 159 nM.

On to `NC(=O)c1ccc(C(=O)Nc2ccc(-c3ccccc3)cc2)cc1NC(=O)CN1CCOCC1` [Example 116, N^4-(Biphenyl-4-yl)-2-[(morpholin-4-ylacetyl)amino]terephthalamide], for which the half-inhibitory concentration (IC50) was at least 50000 nM in experiment [1] and 132 nM in experiment [2].

As to `CC(C)(O)c1ccc(C(=O)Nc2ccc(-c3ccccc3)cc2)cc1NC(=O)CN1CCOCC1` [Example 117, N-(biphenyl-4-yl)-4-(2-hydroxypropan-2-yl)-3-[(morpholin-4-ylacetyl)amino]benzamide], the IC50 is at least 50000 nM in experiment [1] and 153 nM in experiment [2].

With `COc1ccc(NC(=O)c2ccc(-c3ccc(NC(C)=O)cc3)cc2)cc1NC(=O)CN1CCOCC1` [Example 118, 4′-acetamido-N-{4-methoxy-3-[(morpholin-4-ylacetyl)amino]phenyl}biphenyl-4-carboxamide], the figures for the IC50 in experiment [1] and in experiment [2] were at least 50000 nM and 960 nM, respectively.

With `CNc1ccc(-c2ccc(C(=O)Nc3ccc(OC)c(NC(=O)CN4CCOCC4)c3)cc2)cc1` [Example 119, N-{4-methoxy-3-[(morpholin-4-ylacetyl)amino]phenyl}-4′-(methylamino)biphenyl-4-carboxamide], the IC50 was at least 50000 nM in experiment [1] and 260 nM in experiment [2].

On to `COc1ccc(NC(=O)c2ccc(-c3ccc(CN)cc3)cc2)cc1NC(=O)CN1CCOCC1` [Example 120, 4′-(aminomethyl)-N-{4-methoxy-3-[(morpholin-4-ylacetyl)amino]phenyl}biphenyl-4-carboxamide], for which the IC50 is at least 50000 nM in experiment [1] and 755 nM in experiment [2].

On to `O=C(CN1CCOCC1)Nc1cc(C(=O)Nc2ccc(-c3ccccc3)cc2)ccc1OCCCO` [Example 121, N-(biphenyl-4-yl)-4-(3-hydroxypropoxy)-3-[(morpholin-4-ylacetyl)amino]benzamide], for which the IC50 in experiment [1] is at least 50000 nM; in experiment [2], 237 nM.

On to `NC(=O)COc1ccc(C(=O)Nc2ccc(-c3ccccc3)cc2)cc1NC(=O)CN1CCOCC1` [Example 122, 4-(2-amino-2-oxoethoxy)-N-(biphenyl-4-yl)-3-[(morpholin-4-ylacetyl)amino]benzamide], for which the IC50 was 15500 nM in experiment [1] and 338 nM in experiment [2].

As to `COc1ccc(C(=O)Nc2ccc(-c3cc(F)cc(F)c3)c(F)c2)cc1NC(=O)CN1CCOCC1` [Example 123, 4-methoxy-3-[(morpholin-4-ylacetyl)amino]-N-(2,3′,5′-trifluorobiphenyl-4-yl)benzamide], the IC50 in experiment [1] was at least 50000 nM; in experiment [2] it was 400 nM.

For `CN1CCN(CC(=O)Nc2cc(C(=O)Nc3ccc(-c4ccccc4)cc3)ccc2CS(C)(=O)=O)CC1` [Example 125, N-(biphenyl-4-yl)-3-{[(4-methylpiperazin-1-yl)acetyl]amino}-4-[(methylsulfonyl)methyl]benzamide], the results for the IC50 in experiment [1] and in experiment [2] were 8900 nM and 105 nM, respectively.

Regarding `CC(=O)NCCCOc1ccc(C(=O)Nc2ccc(-c3ccccc3)cc2)cc1NC(=O)CN1CCOCC1` [Example 126, 4-(3-acetamidopropoxy)-N-(biphenyl-4-yl)-3-[(morpholin-4-ylacetyl)amino]benzamide], the IC50 is at least 50000 nM in experiment [1] and 222 nM in experiment [2].

For `O=C(CN1CC2CCC(C1)O2)Nc1cc(C(=O)Nc2ccc(-c3ccccc3)cc2)ccc1OC1CC1` [Example 128, N-(biphenyl-4-yl)-4-(cyclopropyloxy)-3-[(8-oxa-3-azabicyclo[3.2.1]oct-3-ylacetyl)amino]benzamide], the IC50 in experiment [1] is at least 50000 nM; in experiment [2], 74 nM.

In the case of `COc1ccc(NC(=O)c2ccc(-c3ccccc3)cc2)cc1NC(=O)C1(NC(=O)OC(C)(C)C)CC1` [Example 129, tert-butyl[1-({5-[(biphenyl-4-ylcarbonyl)amino]-2-methoxyphenyl}carbamoyl)cyclopropyl]carbamate], the results for the IC50 in experiment [1] and in experiment [2] were 11000 nM and 195 nM, respectively.

Source of the values: US20160052898A1, “NOVEL COMPOUNDS” (BAYER PHARMA AKTIENGESELLSCHAFT, priority 2013, published 2016).
